pIC50, pKi: −log10 of the molar value.

A word on the pIC50: it is −log10 of the IC50, conventionally taken in molar units. In general, pKi refers to −log10 of the Ki, conventionally taken in molar units.

The target of test [1] is T1, Angiotensin-converting enzyme (Oryctolagus cuniculus, UniProt P12822).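 Note: enzymatic inhibition of angiotensin-converting enzyme measured with FAPGG as the substrate; in other assays of this panel Not Active means under 50% inhibition at 10 µM.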
T1 sequence (P12822 whole entry): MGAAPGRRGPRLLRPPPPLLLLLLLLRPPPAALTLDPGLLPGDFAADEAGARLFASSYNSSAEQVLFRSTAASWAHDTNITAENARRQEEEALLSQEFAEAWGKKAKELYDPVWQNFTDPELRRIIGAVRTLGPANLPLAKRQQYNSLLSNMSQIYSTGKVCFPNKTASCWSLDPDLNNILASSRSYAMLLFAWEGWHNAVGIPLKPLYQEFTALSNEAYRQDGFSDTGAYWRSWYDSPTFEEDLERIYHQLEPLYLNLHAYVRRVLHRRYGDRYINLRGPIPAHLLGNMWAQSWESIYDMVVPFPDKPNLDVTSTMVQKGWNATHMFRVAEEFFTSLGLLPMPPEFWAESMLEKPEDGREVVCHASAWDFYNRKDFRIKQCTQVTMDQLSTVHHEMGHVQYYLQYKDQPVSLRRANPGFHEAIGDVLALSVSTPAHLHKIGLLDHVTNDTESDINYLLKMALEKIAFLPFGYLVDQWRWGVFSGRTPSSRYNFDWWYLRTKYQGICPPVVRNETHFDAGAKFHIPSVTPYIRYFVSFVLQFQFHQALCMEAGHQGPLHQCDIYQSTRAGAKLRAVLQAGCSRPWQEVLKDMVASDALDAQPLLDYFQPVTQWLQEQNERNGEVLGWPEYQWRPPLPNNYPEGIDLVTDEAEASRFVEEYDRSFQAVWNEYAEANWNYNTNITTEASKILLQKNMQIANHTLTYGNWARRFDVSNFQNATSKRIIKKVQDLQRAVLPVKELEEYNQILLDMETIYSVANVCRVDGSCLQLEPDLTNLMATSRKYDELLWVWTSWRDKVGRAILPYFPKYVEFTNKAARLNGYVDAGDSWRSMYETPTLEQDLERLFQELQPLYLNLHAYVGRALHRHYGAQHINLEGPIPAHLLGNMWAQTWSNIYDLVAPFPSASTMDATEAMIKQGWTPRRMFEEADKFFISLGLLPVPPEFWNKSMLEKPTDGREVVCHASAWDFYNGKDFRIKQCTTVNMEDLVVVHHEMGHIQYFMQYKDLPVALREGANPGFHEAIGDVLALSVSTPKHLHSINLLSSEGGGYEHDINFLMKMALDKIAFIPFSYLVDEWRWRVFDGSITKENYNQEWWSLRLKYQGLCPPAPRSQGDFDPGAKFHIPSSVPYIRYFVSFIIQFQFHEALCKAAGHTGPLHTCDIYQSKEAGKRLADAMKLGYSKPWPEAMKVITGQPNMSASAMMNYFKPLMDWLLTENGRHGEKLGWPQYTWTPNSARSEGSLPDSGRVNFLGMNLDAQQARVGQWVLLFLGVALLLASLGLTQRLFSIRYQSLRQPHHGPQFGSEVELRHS
The class given is tissue-based, Lung.

The target of test [2] is Sodium-dependent noradrenaline transporter (Homo sapiens, UniProt P23975). The experiment in a line: DRUGMATRIX: Norepinephrine Transporter radioligand binding (ligand: [125I] RTI-55). The settings on record: Not Active = under 50% inhibition at 10 µM; for IC50: mdck. The class given is cell membranes, MDCK, Membrane.
In test [3] the target is Adenosine receptor A2a (Homo sapiens, UniProt P29274). The experiment in a line: DRUGMATRIX: Adenosine A2A radioligand binding (ligand: […]). The class given is cell membranes, HEK293, Membrane. Particulars: hek293; Not Active = under 50% inhibition at 10 µM.
Test [4] has as its target T2, B2 bradykinin receptor (Homo sapiens, UniProt P30411). Note: in other assays of this panel Not Active means under 50% inhibition at 10 µM.
T2 sequence (P30411 whole entry): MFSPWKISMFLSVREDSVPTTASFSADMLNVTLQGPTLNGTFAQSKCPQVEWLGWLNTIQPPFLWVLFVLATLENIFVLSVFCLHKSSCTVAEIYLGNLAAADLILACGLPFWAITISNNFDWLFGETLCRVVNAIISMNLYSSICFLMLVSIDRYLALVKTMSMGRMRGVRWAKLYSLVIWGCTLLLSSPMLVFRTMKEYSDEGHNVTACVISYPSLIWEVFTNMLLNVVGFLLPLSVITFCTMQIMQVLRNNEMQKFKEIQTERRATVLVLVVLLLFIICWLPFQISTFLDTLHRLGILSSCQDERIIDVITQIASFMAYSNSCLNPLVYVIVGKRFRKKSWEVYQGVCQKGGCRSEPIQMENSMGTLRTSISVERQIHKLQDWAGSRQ
The class given is cell membranes, Membrane. The settings on record: chem-1.

Test [5] deals with T3, 3-hydroxy-3-methylglutaryl-coenzyme A reductase (Homo sapiens, UniProt P04035).
T3 sequence (P04035 whole entry): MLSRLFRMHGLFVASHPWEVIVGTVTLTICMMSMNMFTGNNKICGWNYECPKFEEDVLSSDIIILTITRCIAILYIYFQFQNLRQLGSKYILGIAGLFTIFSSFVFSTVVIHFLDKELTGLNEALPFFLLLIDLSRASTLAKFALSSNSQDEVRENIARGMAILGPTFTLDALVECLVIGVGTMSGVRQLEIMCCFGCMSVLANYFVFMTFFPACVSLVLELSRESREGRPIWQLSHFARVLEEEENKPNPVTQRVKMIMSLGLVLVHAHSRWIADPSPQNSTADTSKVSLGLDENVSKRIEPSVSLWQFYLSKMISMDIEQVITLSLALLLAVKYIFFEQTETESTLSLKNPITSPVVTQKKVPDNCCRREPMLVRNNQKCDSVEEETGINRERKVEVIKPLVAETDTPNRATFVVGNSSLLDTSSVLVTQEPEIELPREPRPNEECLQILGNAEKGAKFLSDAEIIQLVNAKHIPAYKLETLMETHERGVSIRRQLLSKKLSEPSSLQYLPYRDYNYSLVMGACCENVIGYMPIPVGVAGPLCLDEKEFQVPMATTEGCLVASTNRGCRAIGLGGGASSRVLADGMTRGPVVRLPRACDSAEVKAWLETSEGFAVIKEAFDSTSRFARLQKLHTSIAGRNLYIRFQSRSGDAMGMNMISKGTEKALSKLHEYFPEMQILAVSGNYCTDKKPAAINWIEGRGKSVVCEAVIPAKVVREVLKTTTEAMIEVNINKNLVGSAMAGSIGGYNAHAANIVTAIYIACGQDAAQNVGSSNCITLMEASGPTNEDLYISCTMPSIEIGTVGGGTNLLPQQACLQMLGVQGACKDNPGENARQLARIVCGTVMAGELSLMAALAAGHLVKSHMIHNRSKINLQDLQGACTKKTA
On the set-up: species or system Escherichia coli.

In test [6] the target is Insulin receptor (Rattus norvegicus, UniProt P15127). The test is classed as cell membranes, Wistar, Liver, Membrane. Note: in other assays of this panel Not Active means under 50% inhibition at 10 µM.
Sequence of Insulin receptor (P15127 27-759 limits assumed): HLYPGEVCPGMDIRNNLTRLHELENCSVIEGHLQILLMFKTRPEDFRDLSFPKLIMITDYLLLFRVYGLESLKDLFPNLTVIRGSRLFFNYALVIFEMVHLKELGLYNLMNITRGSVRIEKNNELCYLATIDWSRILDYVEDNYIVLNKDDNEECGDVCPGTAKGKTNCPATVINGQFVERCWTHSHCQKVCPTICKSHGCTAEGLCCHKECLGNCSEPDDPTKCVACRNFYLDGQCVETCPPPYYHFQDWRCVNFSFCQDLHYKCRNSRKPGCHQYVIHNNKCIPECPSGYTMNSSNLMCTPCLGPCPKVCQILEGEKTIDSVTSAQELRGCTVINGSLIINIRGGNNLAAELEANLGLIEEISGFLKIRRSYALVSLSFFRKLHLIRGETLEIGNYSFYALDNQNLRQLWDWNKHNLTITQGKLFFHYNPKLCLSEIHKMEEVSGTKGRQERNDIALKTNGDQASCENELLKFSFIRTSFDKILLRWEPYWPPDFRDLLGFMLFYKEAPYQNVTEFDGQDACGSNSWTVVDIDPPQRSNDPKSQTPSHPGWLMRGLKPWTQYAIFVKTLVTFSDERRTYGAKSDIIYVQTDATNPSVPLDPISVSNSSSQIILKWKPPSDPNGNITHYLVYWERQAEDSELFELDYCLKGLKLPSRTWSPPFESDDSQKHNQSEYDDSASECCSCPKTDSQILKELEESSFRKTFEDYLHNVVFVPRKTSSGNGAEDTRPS
Sequence of Insulin receptor (P15127 764-1383 limits assumed): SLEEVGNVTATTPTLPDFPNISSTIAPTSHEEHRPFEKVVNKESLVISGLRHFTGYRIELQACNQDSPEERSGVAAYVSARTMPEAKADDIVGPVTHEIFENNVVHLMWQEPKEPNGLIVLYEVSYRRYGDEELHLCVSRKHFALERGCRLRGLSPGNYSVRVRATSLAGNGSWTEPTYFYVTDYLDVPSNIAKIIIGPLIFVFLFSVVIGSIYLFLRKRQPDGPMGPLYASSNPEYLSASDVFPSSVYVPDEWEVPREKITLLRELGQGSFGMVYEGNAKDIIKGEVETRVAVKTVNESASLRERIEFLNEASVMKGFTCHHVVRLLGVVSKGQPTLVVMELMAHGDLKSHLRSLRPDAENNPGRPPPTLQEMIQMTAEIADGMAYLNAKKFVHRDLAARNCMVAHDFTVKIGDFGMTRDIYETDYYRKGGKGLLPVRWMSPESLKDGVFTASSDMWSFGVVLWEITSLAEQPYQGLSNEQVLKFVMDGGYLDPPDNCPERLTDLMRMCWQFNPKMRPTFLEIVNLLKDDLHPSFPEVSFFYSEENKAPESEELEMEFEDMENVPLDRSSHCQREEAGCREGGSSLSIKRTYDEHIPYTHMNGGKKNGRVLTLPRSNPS

Sequence of Adenosine receptor A2a (P29274 whole entry): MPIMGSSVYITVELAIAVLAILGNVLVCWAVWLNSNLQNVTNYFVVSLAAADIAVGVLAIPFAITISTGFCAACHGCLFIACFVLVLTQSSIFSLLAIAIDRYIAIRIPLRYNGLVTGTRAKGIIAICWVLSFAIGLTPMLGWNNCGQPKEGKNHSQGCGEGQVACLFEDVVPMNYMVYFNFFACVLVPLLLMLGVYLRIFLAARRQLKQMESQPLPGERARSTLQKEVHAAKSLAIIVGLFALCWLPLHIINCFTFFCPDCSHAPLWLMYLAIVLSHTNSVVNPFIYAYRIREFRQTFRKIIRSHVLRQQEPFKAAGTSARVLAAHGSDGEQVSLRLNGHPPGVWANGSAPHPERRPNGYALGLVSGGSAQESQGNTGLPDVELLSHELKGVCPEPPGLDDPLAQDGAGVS
Sequence of Sodium-dependent noradrenaline transporter (P23975 whole entry): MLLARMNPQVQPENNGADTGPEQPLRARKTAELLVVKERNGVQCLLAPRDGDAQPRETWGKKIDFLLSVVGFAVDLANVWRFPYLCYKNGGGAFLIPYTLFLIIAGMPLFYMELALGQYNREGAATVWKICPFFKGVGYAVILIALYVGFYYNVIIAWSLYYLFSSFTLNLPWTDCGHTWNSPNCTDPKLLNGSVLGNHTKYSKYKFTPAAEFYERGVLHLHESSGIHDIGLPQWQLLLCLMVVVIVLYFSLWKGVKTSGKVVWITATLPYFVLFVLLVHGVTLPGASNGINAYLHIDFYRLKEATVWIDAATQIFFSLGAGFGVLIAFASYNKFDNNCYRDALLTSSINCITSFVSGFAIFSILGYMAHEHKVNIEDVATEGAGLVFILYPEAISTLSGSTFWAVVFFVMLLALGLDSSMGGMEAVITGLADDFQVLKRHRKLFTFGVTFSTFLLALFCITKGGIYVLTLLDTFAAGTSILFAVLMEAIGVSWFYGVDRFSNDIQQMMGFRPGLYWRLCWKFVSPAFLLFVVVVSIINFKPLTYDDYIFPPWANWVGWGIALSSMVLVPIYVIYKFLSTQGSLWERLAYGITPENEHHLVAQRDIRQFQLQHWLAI

Regarding `CCOC(=O)C1=C(C)NC(C)=C(C(=O)OC)C1c1cccc(Cl)c1Cl` (centres undefined) [FELODIPINE], the IC50 result in test [1], in test [2], in test [3], in test [4], in test [5] and in test [6] was “Not Active” each time.

As to `CC(C(=O)O)c1ccc(-c2ccccc2)c(F)c1` (centres undefined) [FLURBIPROFEN], the IC50 entry in test [1], in test [2], in test [3], in test [4], in test [5] and in test [6] was “Not Active” in each case.

For the compound `Cc1cn[nH]c1` [FOMEPIZOLE], the IC50 result in test [1], in test [2], in test [3], in test [4], in test [5] and in test [6] was “Not Active” throughout.

Consider `NC[C@@H]1O[C@H](O[C@H]2[C@@H](O)[C@H](O[C@@H]3[C@@H](O)[C@H](N)C[C@H](N)[C@H]3O[C@H]3O[C@H](CN)[C@@H](O)[C@H](O)[C@H]3N)O[C@@H]2CO)[C@H](N)[C@@H](O)[C@@H]1O` [FRAMYCETIN], for which the IC50 entry in test [1], in test [2], in test [3], in test [4], in test [5] and in test [6] was “Not Active” in each case.

With `C[C@H]([C@](O)(Cn1cncn1)c1ccc(F)cc1F)S(C)(=O)=O` [GENACONAZOLE], the IC50 entry in test [1], in test [2], in test [3], in test [4], in test [5] and in test [6] was “Not Active” in each case.

Turning to `Cc1c(F)c(N2CCNC(C)C2)cc2c1c(=O)c(C(=O)O)cn2C1CC1` (centres undefined) [GREPAFLOXACIN], the IC50 entry in test [1], in test [2], in test [3], in test [4], in test [5] and in test [6] was “Not Active” throughout.

With `COc1ccccc1OCC(O)CO` (centres undefined) [GUAIFENESIN], the IC50 entry in test [1], in test [2], in test [3], in test [4], in test [5] and in test [6] was “Not Active” in each case.

Consider `N=C(N)N/N=C/c1c(Cl)cccc1Cl` [GUANABENZ], for which the IC50 entry in test [1], in test [2], in test [3], in test [4], in test [5] and in test [6] was “Not Active” each time.

`C/C=C\c1ccc(O)c(OC)c1` [ISOEUGENOL]: the IC50 result in test [1], in test [2], in test [3], in test [4], in test [5] and in test [6] was “Not Active” in each case.

As to `NC[C@H]1O[C@H](O[C@H]2[C@H](O)[C@@H](O[C@H]3O[C@H](CO)[C@@H](O)[C@H](N)[C@H]3O)[C@H](N)C[C@@H]2N)[C@H](O)[C@@H](O)[C@@H]1O` [KANAMYCIN], the IC50 entry in test [1], in test [2], in test [3], in test [4], in test [5] and in test [6] was “Not Active” throughout.

As for `CC(C(=O)O)c1ccc(CC2CCCC2=O)cc1` (centres undefined) [LOXOPROFEN], the IC50 result in test [1], in test [2], in test [3], in test [4], in test [5] and in test [6] was “Not Active” in each case.

For `Cc1cccc(Nc2ccccc2C(=O)O)c1C` [MEFENAMIC ACID], the IC50 entry in test [1], in test [2], in test [3], in test [4], in test [5] and in test [6] was “Not Active” each time.

As for `CC(=O)O[C@]1(C(C)=O)CC[C@H]2[C@@H]3C=C(C)C4=CC(=O)CC[C@]4(C)[C@H]3CC[C@@]21C` [MEGESTROL ACETATE], the IC50 entry in test [1], in test [2], in test [3], in test [4], in test [5] and in test [6] was “Not Active” each time.

For `COc1ccccc1OCC(O)COC(N)=O` (centres undefined) [METHOCARBAMOL], the IC50 entry in test [1], in test [2], in test [3], in test [4], in test [5] and in test [6] was “Not Active” throughout.

Take `CN(Cc1cnc2nc(N)nc(N)c2n1)c1ccc(C(=O)N[C@@H](CCC(=O)O)C(=O)O)cc1` [METHOTREXATE]: the IC50 entry in test [1], in test [2], in test [3], in test [4], in test [5] and in test [6] was “Not Active” throughout.

`COC(=O)c1ccccc1O` [METHYL SALICYLATE]: the IC50 result in test [1], in test [2], in test [3], in test [4], in test [5] and in test [6] was “Not Active” throughout.

For the compound `COc1ccc2cc(CCC(C)=O)ccc2c1` [NABUMETONE], the IC50 result in test [1], in test [3], in test [4], in test [5] and in test [6] was “Not Active” in each case. Besides, the negative-log IC50 (pIC50) in test [2] (read-out: IC50) is 5.73. In test [2] (read-out: Ki), the pKi was 5.73.

`O=C(O)c1cccnc1` [NIACIN]: the IC50 result in test [1], in test [2], in test [3], in test [4], in test [5] and in test [6] was “Not Active” in each case.
